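These data come from cells grown in 96-well plates and exposed to compound for 48 hours at five concentrations. At the GI50, growth is halved.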 Calls of active or inactive are those of the source. Cut-off read from the data, not from the text of the source: active = GI50 up to about 1.1 µM and inactive = higher.

We go through eight compounds from ChEMBL document CHEMBL1201862, “PubChem BioAssay data set” (2004).

Among the test systems are NCI-H23; PC-3; HT-29; SK-OV-3; HCC 2998; HOP-62; HOP-92; COLO 205; A498; SK-MEL-2; TK-10; Hs-578T; DU-145; T47D; M14; OVCAR-4; Malme-3M.
What all share (experiment): NCI anticancer screen, dose series, 48 h

`O=C(O)CCC(=O)Nc1ccc2ccccc2c1`: the GI50 with NCI-H23, with PC-3, with HT-29, in the experiment with SK-OV-3, in the experiment on HCC 2998 and in the experiment with HOP-62 was > 100 µM (inactive) throughout. Moreover, the GI50 in the experiment on HOP-92, with COLO 205, in the experiment on A498, in the experiment with SK-MEL-2, in the experiment with TK-10 and in the experiment on Hs-578T was > 100 µM (inactive) each time. Moreover, the GI50 with DU-145, in the experiment on T47D, with M14, with OVCAR-4 and in the experiment on Malme-3M was > 100 µM (inactive) throughout.

On to `COc1cc(OC)c(/C=C/c2cnc3ccccc3n2)c(OC)c1`, for which the GI50 with NCI-H23, in the experiment on PC-3, in the experiment on HT-29, in the experiment with SK-OV-3, in the experiment with HCC 2998 and in the experiment with HOP-62 was > 10 µM (inactive) each time. Also, the GI50 with HOP-92, in the experiment on COLO 205, with A498, with SK-MEL-2, in the experiment with TK-10 and with Hs-578T was > 10 µM (inactive) each time. For the same compound, the GI50 in the experiment on DU-145, with T47D, in the experiment with M14, in the experiment with OVCAR-4 and in the experiment with Malme-3M was > 10 µM (inactive) throughout.

In the case of `COc1cc(C2C3=C(COC3=O)Oc3cc4c(cc32)OCO4)ccc1OC(C)=O` (stereo unspecified), the GI50 is 0.67 µM (active) in the experiment with NCI-H23; 0.186 µM (active) in the experiment with PC-3; 0.346 µM (active) in the experiment with HT-29; 0.334 µM (active) in the experiment on SK-OV-3; 1.01 µM (active) with HCC 2998; 1.73 µM (inactive) in the experiment on HOP-62. Further, the GI50 was 6 µM (inactive) with HOP-92; 0.224 µM (active) with COLO 205; 1.53 µM (inactive) in the experiment on A498; 0.684 µM (active) in the experiment on SK-MEL-2; > 100 µM (inactive) with TK-10; 0.112 µM (active) in the experiment with Hs-578T. For the same compound, the GI50 in the experiment with DU-145 is 0.492 µM (active); with T47D, 0.565 µM (active); in the experiment with M14, 0.498 µM (active); in the experiment with OVCAR-4, 1.41 µM (inactive); with Malme-3M, 0.0893 µM (active).

For the compound `C=C1C(=O)O[C@H]2[C@H](OC(C)=O)[C@@H](C)CCC/C(C)=C/CC[C@@]3(C)O[C@@H]3C[C@@H]12`, the GI50 in the experiment with NCI-H23 was 4.04 µM (inactive); with PC-3, 5.25 µM (inactive); with HT-29 it was 2.94 µM (inactive); in the experiment with SK-OV-3, 15.6 µM (inactive); in the experiment with HCC 2998 it was 5.27 µM (inactive); in the experiment with HOP-62, 15.6 µM (inactive). In addition, the GI50 with HOP-92 is 1.92 µM (inactive); in the experiment on COLO 205, 3.19 µM (inactive); in the experiment on A498, 3.56 µM (inactive); with SK-MEL-2, 6.01 µM (inactive); with TK-10, 2.13 µM (inactive); in the experiment on Hs-578T it was 3.32 µM (inactive). Besides, the GI50 is 2.32 µM (inactive) with DU-145; 1.6 µM (inactive) with T47D; 4.23 µM (inactive) in the experiment on M14; 3.55 µM (inactive) in the experiment on OVCAR-4; 16 µM (inactive) in the experiment with Malme-3M.

As for `COc1ccc(/C=C2\CC3C4CC=C5C[C@@H](N6CCCC6)CC[C@]5(C)C4CC[C@]3(C)[C@H]2O)cc1OC` (stereo partly specified), the GI50 is 9.04 µM (inactive) in the experiment with NCI-H23; 6.3 µM (inactive) in the experiment on PC-3; 4.13 µM (inactive) with HT-29; 8.81 µM (inactive) in the experiment with SK-OV-3; 5.52 µM (inactive) in the experiment on HCC 2998; 5.48 µM (inactive) with HOP-62. Further, the GI50 in the experiment on HOP-92 is 10.7 µM (inactive); in the experiment with COLO 205, 8.38 µM (inactive); in the experiment on A498, 8.2 µM (inactive); with SK-MEL-2 it was 7.43 µM (inactive); in the experiment on TK-10, 10.8 µM (inactive); in the experiment with Hs-578T it was 11 µM (inactive). Further, the GI50 in the experiment with DU-145 is 11.2 µM (inactive); with T47D, 12.2 µM (inactive); with M14, 9.44 µM (inactive); in the experiment with OVCAR-4, 7.67 µM (inactive); with Malme-3M, 9.2 µM (inactive).

As to `C1C2CC3CC1CC(Nc1nc(NC45CC6CC(CC(C6)C4)C5)nc(NC45CC6CC(CC(C6)C4)C5)n1)(C2)C3`, the GI50 with NCI-H23 is > 43.9 µM (inactive); in the experiment on PC-3, > 67.3 µM (inactive); in the experiment on HT-29, > 100 µM (inactive); in the experiment with SK-OV-3, > 100 µM (inactive); in the experiment on HCC 2998, 72.1 µM (inactive); with HOP-62, > 36.5 µM (inactive). Besides, the GI50 in the experiment with HOP-92 is > 100 µM (inactive); in the experiment with COLO 205, 28.7 µM (inactive); in the experiment on A498, > 51.4 µM (inactive); in the experiment on SK-MEL-2, > 70 µM (inactive); in the experiment with TK-10, > 60 µM (inactive); with Hs-578T, 43.4 µM (inactive). The GI50 was 42 µM (inactive) in the experiment with DU-145; 72.1 µM (inactive) in the experiment with T47D; 44 µM (inactive) with M14; > 83 µM (inactive) in the experiment with OVCAR-4; > 100 µM (inactive) in the experiment on Malme-3M.

For the compound `Cc1cccc2c1CC1(C2)Cc2c(C)cccc2C1=O` (stereo unspecified), the GI50 in the experiment with NCI-H23 is 31.4 µM (inactive); in the experiment on PC-3, 31.7 µM (inactive); in the experiment on HT-29, 29.9 µM (inactive); in the experiment on SK-OV-3 it was 29.8 µM (inactive); in the experiment with HCC 2998, 26.1 µM (inactive); in the experiment with HOP-62, 23.6 µM (inactive). For the same compound, the GI50 with HOP-92 was 16.6 µM (inactive); in the experiment on COLO 205, 15.6 µM (inactive); in the experiment on A498, 32.1 µM (inactive); with SK-MEL-2 it was 16.9 µM (inactive); with TK-10, 23.6 µM (inactive); with Hs-578T it was 37.6 µM (inactive). In addition, the GI50 was 18.8 µM (inactive) in the experiment on DU-145; 44.8 µM (inactive) with T47D; 26.6 µM (inactive) in the experiment on M14; 30.6 µM (inactive) in the experiment with OVCAR-4; 22.7 µM (inactive) in the experiment on Malme-3M.

As to `CN(C)c1ccc(/C=C/c2nc3ccccc3s2)cc1`, the GI50 in the experiment with NCI-H23, in the experiment with PC-3, with HT-29, in the experiment with SK-OV-3, in the experiment with HCC 2998 and with HOP-62 was > 100 µM (inactive) in each case. For the same compound, the GI50 with HOP-92, with COLO 205, in the experiment with A498, with SK-MEL-2, in the experiment on TK-10 and with Hs-578T was > 100 µM (inactive) each time. Besides, the GI50 with DU-145, in the experiment on T47D, in the experiment with M14, in the experiment with OVCAR-4 and in the experiment on Malme-3M was > 100 µM (inactive) throughout.
